Reference: patent publication US10695331B2, “Veterinary composition comprising imidacloprid, moxidectin and praziquantel for cutaneous topical application (spot on), for the treatment and prevention of ecto and endoparasitoses affecting dogs” (LABYES USA, LLC, priority 2016, dated 2020)
Where two headings read alike, the source gives them in different places. Each block holds one molecule with its values, some of them ahead of it.

How the values were obtained:
[1] = pigs; cited from earlier work
[2] = dogs; cited from earlier work
[3] = sheep; cited from earlier work
[4] = cows; cited from earlier work
[5] = in vivo; cited from earlier work
[6] = oral, 0.5 and 2.0 mg/kg/12 hours, 36 days; increase of four times the original dose; cited from earlier work
[7] = percutaneous, dogs (Sarasola, 2002); cited from earlier work
[8] = percutaneous, cats (Sarasola, 2002); cited from earlier work
[9] = in vivo; details: dog
Description: In a period not longer than 2 hours, all of the samples were sent to the Laboratory, where they were centrifuged, and their plasma separated and frozen to −20° C. until the samples were quantified.

[10] = subcutaneous administration, 5 mg/kg, Xie et al. 2011; cited from earlier work
[11] = cited from earlier work
[12] = Plasma concentrations of Praziquantel

Compound: CO/N=C1\C[C@]2(C[C@@H]3C[C@@H](C/C=C(\C)C[C@@H](C)/C=C/C=C4\CO[C@@H]5[C@H](O)C(C)=C[C@@H](C(=O)O3)[C@]45O)O2)O[C@H](/C(C)=C/C(C)C)[C@H]1C [Moxidectin]
half-life of elimination [1]: 12 h
half-life of elimination [2]: 43.2 h
half-life of elimination [3]: 64.8 h
half-life of elimination [4]: 67.2 h
time of plasma spikes [5]: 3 to 5 h
average increase of the concentrations in plasma [6]: more than 8 times

Compound: CO[C@H]1C[C@H](O[C@@H]2/C(C)=C/C[C@@H]3C[C@@H](C[C@]4(CC[C@H](C)[C@@H](C5CCCCC5)O4)O3)OC(=O)[C@@H]3C=C(C)/C(=N/O)[C@H]4OC/C(=C\C=C\[C@@H]2C)[C@]43O)O[C@@H](C)[C@@H]1O [Selamectin]
bioavailability [7]: 4%
bioavailability [8]: 74%

Plasma concentrations of Praziquantel ([9]; 0 h): 0.0 ng/mL
time up to which plasma concentrations are detectable ([9]; 14.5 mg/kg): up to 48 hours
concentration at 0 h [9, 12]: 0 ng/mL
concentration at 6 h [9, 12]: 63.7 ng/mL
AUC/inf, Max ([9]; topical or ocular, 14.5 mg/kg): 1321
AUC/inf, Min ([9]; topical or ocular, 14.5 mg/kg): 626.6
CMAX, Min ([9]; topical or ocular, 14.5 mg/kg): 38.6 ng/mL
TMAX, Min ([9]; topical or ocular, 14.5 mg/kg): 4 h
Tmax ([9]; topical or ocular, 14.5 mg/kg): 4 h
AUC ([9]; topical or ocular, 14.5 mg/kg, AUC/inf, Median): 997 ng·h/mL
Cmax ([9]; topical or ocular, 14.5 mg/kg, Max): 77.6 ng/mL
Cmax ([9]; topical or ocular, 14.5 mg/kg, Median): 53.9 ng/mL
Tmax ([9]; topical or ocular, 14.5 mg/kg, TMAX): 6 h
Tmax ([9]; topical or ocular, 14.5 mg/kg, TMAX, Median): 5 h
Tmax ([9]; topical or ocular, 14.5 mg/kg, Tmax range): 4 to 6 h
Compound: O=C(C1CCCCC1)N1CC(=O)N2CCc3ccccc3C2C1 (stereo not shown) [Praziquantel]
Cmax [10]: 47.82 ng/mL
Tmax [10]: 1.45 h
plasma values after 48 hours [10]: below 10 ng/ml
part of an oral dose excreted with no changes ([11]; oral dose): less than 1%
concentration in tissues and plasma ([11]; up to): 14-20%
